Test [1] in a line: In vitro binding affinity to reduce the supernatant protein concentration of the microtubule.
The nature of test [2]: Ratio of ED50 to that of taxol.

In test [1], `CC(=O)O[C@H]1C(=O)[C@@]2(C)[C@H]([C@H](OC(=O)c3ccccc3)[C@]3(O)C[C@H](OC(=O)[C@H](O)[C@@H](NC(=O)OC(C)(C)C)c4ccccc4)C(C)=C1C3(C)C)[C@]1(O)CO[C@@H]1C[C@@H]2O` had an ED50 of more than 30 µM. In test [2], the Ratio is more than 32.
The corresponding values for `CC(=O)O[C@H]1C(=O)[C@@]2(C)[C@H]([C@H](OC(=O)c3ccccc3)[C@]3(O)C[C@H](OC(=O)[C@H](O)[C@@H](NC(=O)c4ccccc4)c4ccccc4)C(C)=C1C3(C)C)[C@]1(OC(C)=O)CO[C@@H]1C[C@@H]2O` are 0.93 µM and 1.
In test [1], `CC(=O)O[C@H]1C(=O)[C@@]2(C)[C@H]([C@H](OC(=O)c3ccccc3)[C@]3(O)C[C@H](OC(=O)[C@H](O)[C@@H](NC(=O)c4ccccc4)c4ccccc4)C(C)=C1C3(C)C)[C@]1(O)CO[C@@H]1C[C@@H]2O` showed an ED50 of more than 30 µM. The Ratio in test [2] was more than 32.

The values are drawn from ChEMBL document CHEMBL1127429, “4-Deacetyltaxol and 10-acetyl-4-deacetyltaxotere: synthesis and biological evaluation” (J Med Chem, 1994).
